Laboratory results from US7541020B2, “Aminoalkyl glucosaminide phosphate compounds and their use as adjuvants and immunoeffectors” (priority 1997, dated 2009).
Like-named read-outs stand apart in the source and are kept apart here.

Columns and labels:
E.G7 (OVA) cells = conditions: s.c. 25 μg OVA in AGP preparation, spleen cells 21 days later
influenza A/HK/68 [1] = test system: influenza A/HK/68; parameters: species or system ICR mice; conditions: mouse, in vivo
influenza A/HK/68 [2] = test system: influenza A/HK/68; parameters: species or system ICR mice; conditions: mouse, in vivo; remark: listed apart in the source
influenza A/HK/68 [3] = type: in vivo, ICR mice; conditions: mouse, in vivo
[4] = Fever response in rabbits (pyrogenicity); type: in vivo; conditions: 10 ug/kg; cumulative rise ≥1.5 degree in three rabbits is considered pyrogenic
Method: The AGP compounds were also evaluated for their tendency to induce a fever response in rabbits. Each compound was formulated in 10% (v/v) ethanol/water solution at 100 mg/ml, then diluted with D5W to the desired concentration. The material was injected at 3 ml/kg body weight into 3 rabbits. The rise in core temperature of the rabbits was recorded.

IL-1β = experiment: Cytokine induction in human whole blood ex vivo culture: IL-1β (ELISA); type: cell-based; conditions: 4 hr
How it was run: (§1)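 Compounds in 10% EtOH-water added at 1:10 to human whole blood, 4 hr at 37° C with rotation; RPMI-treated controls. After PBS dilution and centrifugation, supernatant TNF-α and IL-1β measured by ELISA.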

influenza A/HK/68 [5] = type: in vivo, BALB/c mice; conditions: mouse, in vivo
TNF-α = experiment: Cytokine induction in human whole blood ex vivo culture: TNF-α (ELISA); type: cell-based; conditions: 4 hr
How it was run: as §1

Substance	% Cytotoxicity (E.G7 (OVA) cells; E:T 12.5:1)	% Cytotoxicity (E.G7 (OVA) cells; E:T 25:1)	% Cytotoxicity (E.G7 (OVA) cells; E:T 50:1)	Anti-influenza Titer^−1 Total IgG (influenza A/HK/68 [1])	IgG Titer-1 post 1° (influenza A/HK/68 [2])	IgG Titer-1 post 2° (influenza A/HK/68 [2])	Percent Survival post 1° (influenza A/HK/68 [2])	Percent Survival post 2° (influenza A/HK/68 [2])	PYROGENICITY Total Rise ° C., 3 rabbits [4]	IL-1β (IL-1β; Dosage 1000 ng/ml, Table 15)	IL-1β (IL-1β; Dosage 5000 ng/ml, Table 15)	IL-1β (IL-1β; Dosage 10,000 ng/ml, Table 15)	Percent Survival (influenza A/HK/68 [1])	Anti-influenza Titer^−1 IgG1 (influenza A/HK/68 [5])	Anti-influenza Titer^−1 IgG2a (influenza A/HK/68 [5])	Anti-influenza Titer^−1 IgG2b (influenza A/HK/68 [5])	Anti-influenza Titer^−1 Total IgG (influenza A/HK/68 [5])	Percent Survival (influenza A/HK/68 [5])	TNF-α (TNF-α; Dosage 1000 ng/ml, Table 15)	TNF-α (TNF-α; Dosage 5000 ng/ml, Table 15)	further results
3-Hydroxy-(S)-2-[(R)-3-nonanoyloxytetradecanoylamino]propyl 2-Deoxy-4-O-phosphono-2-[(R)-3-nonanoyloxytetradecanoylamino]-3-O-[(R)-3-nonanoyloxytetradecanoyl]-β-D-glucopyranoside Triethylammonium Salt [B7]	29%	44%	57%	200	3200	>102,400	60%	60%	4 °C												Titer−1 IgG1 (influenza A/HK/68 [3]): 3200; Titer−1 IgG2a (influenza A/HK/68 [3]): 100; Titer−1 IgG2b (influenza A/HK/68 [3]): 1600; Titer−1 Total IgG (influenza A/HK/68 [3]): 3200
4-Hydroxy-(S)-2-[(R)-3-decanoyloxytetradecanoyl]butyl 2-Deoxy-4-O-phosphono-2-[(R)-3-decanoyloxytetradecanoylamino]-3-O-[(R)-3-decanoyltetradecanoyl]-β-D-glucopyranoside Triethylammonium Salt [B10]	38%	56%	65%	1600	1600	25,600	60%	90%	5.8 °C	17 pg/mL	61 pg/mL	43 pg/mL	40%	400	400	400	400	62.5%	73 pg/mL	127 pg/mL	TNF-α (TNF-α; Dosage 10,000 ng/ml, Table 15): 207 pg/mL
4-Hydroxy-(S)-3-[(R)-3-decanoyloxytetradecanoyl]butyl 2-Deoxy-4-O-phosphono-2-[(R)-3-decanoyloxytetradecanoylamino]-3-O-[(R)-3-decanoyltetradecanoyl]-β-D-glucopyranoside Triethylammonium Salt [B9]	36%	55%	65%	6400	6400	12,800	80%	50%	3.1 °C	53 pg/mL	84 pg/mL	96 pg/mL	44%	1600	3200	800	1600	87.5%	145 pg/mL	247 pg/mL	TNF-α (TNF-α; Dosage 10,000 ng/ml, Table 15): 449 pg/mL
N-[(R)-3-decanoyloxytetradecanoyl]-O-[2-deoxy-4-O-phosphono-2-[(R)-3-decanoyloxytetradecanoylamino]-3-O-[(R)-3-decanoyloxytetradecanoyl]-β-D-glucopyranosyl]-D-serine Triethylammonium Salt [B14]	25%	36%	45%	6400	800	51,200	33%	70%					44%	6400	3200	6400	3200	87.5%			IL-1β (IL-1β; Dosage 500 ng/ml, Table 17): 19.9 pg/mL; IL-1β (IL-1β; Dosage 1000 ng/ml, Table 16): 46 pg/mL; IL-1β (IL-1β; Dosage 1000 ng/ml, Table 17): 10.0 pg/mL; IL-1β (IL-1β; Dosage 5000 ng/ml, Table 16): 71 pg/mL; IL-1β (IL-1β; Dosage 5000 ng/ml, Table 17): 19.0 pg/mL; IL-1β (IL-1β; Dosage 10,000 ng/ml, Table 16): 91 pg/mL; IL-1β (IL-1β; Dosage 10,000 ng/ml, Table 17): 24.6 pg/mL; Percent Survival (influenza A/HK/68 [3]): 30%; Titer^−1 IgG1 (influenza A/HK/68 [3]): 1600; Titer^−1 IgG2a (influenza A/HK/68 [3]): 100; Titer^−1 IgG2b (influenza A/HK/68 [3]): 400; Titer^−1 Total IgG (influenza A/HK/68 [3]): 800; TNF-α (TNF-α; Dosage 500 ng/ml, Table 17): 49 pg/mL; TNF-α (TNF-α; Dosage 1000 ng/ml, Table 16): 56 pg/mL; TNF-α (TNF-α; Dosage 1000 ng/ml, Table 17): 51 pg/mL; TNF-α (TNF-α; Dosage 5000 ng/ml, Table 16): 120 pg/mL; TNF-α (TNF-α; Dosage 5000 ng/ml, Table 17): 87 pg/mL; TNF-α (TNF-α; Dosage 10,000 ng/ml, Table 16): 249 pg/mL; TNF-α (TNF-α; Dosage 10,000 ng/ml, Table 17): 114 pg/mL
